Laboratory results from patent publication US20230391748A1, “BICYCLIC INHIBITORS OF IRAK” (priority 2022, published 2023).

Columns and labels:
IL23p19 in THP-1 Cells = assay: LPS Induced IL23p19 in THP-1 Cells (with IFNγ Primed) Assay; format: cell-based; conditions: Homo sapiens, THP-1, 18 h, read-out: IL23 (THP, LPS) (IC50, μM)
Procedure, shortened: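 THP-1 cells (50K/well) primed with IFNγ (50 ng/mL) about 18 h, then given compound and stimulated with LPS for 18 h at 37 °C. Secreted IL-23p19 measured by sandwich ELISA with chemiluminescent read-out, giving EC50. Cell Titer Glo used on the remaining cells for toxicity.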

TNF-α in human PBMCs = assay: R848-induced TNF-α in human PBMCs Assay; format: cell-based; conditions: Homo sapiens, PBMC, 4 h, read-out: TNFα (PBMC, R848) (IC50, μM)
Procedure, shortened: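 Human PBMCs at 200K/well were pretreated with compound, then R848-stimulated for 4 h at 37 °C, 5% CO2. Supernatant TNF-α quantified by chemiluminescent ELISA; EC50 from curve fitting.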

IRAK4 = IRAK4 (Homo sapiens (Human), UniProt Q9NWZ3); assay: IRAK4 ADP-Glo Assay; format: biochemical; conditions: MBP substrate
Sequence of IRAK4 (Q9NWZ3 whole entry): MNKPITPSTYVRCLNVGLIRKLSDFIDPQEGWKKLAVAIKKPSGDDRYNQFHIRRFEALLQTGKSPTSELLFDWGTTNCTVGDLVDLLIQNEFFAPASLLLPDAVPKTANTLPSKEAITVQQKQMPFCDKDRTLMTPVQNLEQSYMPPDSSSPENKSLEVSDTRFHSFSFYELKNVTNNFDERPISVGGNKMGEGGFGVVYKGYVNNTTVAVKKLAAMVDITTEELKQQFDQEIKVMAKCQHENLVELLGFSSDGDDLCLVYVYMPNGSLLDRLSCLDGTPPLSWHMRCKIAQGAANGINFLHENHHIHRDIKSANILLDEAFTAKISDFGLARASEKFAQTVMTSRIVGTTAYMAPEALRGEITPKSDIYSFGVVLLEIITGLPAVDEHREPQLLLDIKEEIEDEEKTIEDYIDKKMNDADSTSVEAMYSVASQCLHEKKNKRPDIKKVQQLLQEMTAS
Procedure, shortened: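 Human IRAK4 kinase reaction with MBP substrate plus ATP in Tris-HCl/MgCl2/BSA/DTT buffer, pH 7.4, run 60 min at room temperature or 30 min at 30 °C. ADP formed was measured by ADP-Glo luminescence after ATP depletion (40 min) and detection reagent (30 min).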

[1] = system: TNF-α in Human Primary Monocyte-Derived Dendritic Cells; assay: Gardiquimod-Induced TNF-α in Human Primary Monocyte-Derived Dendritic Cells; format: cell-based; conditions: Dendritic cell, IFNγ-primed monocyte-derived dendritic cells, 4 μg/ml Gardiquimod, 6 hours, TNF-α ELISA, read-out: TNFα (DC, GARD) (IC50)
Procedure, shortened: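 Monocytes differentiated 7 days with GM-CSF and IL-4, then primed 24 h with 50 ng/ml IFN-γ. Compound added 1 h before 6 h stimulation with 4 μg/ml Gardiquimod, 0.5% DMSO final. Supernatant TNF-α measured by chemiluminescent ELISA; EC50 from curve fitting.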

| SMILES | IC50 (IL23p19 in THP-1 Cells) [µM] | IC50 (TNF-α in human PBMCs) [µM] | IC50 (IRAK4) [nM] | IC50 [1] [nM] |
| --- | --- | --- | --- | --- |
| CC(C)Oc1cc2c(OC[C@@H]3CC(F)(F)C(=O)N3)ncc(C#CC3(O)CCNCC3)c2cc1C(N)=O [Compound I-53, (S)-1-((4,4-difluoro-5-oxopyrrolidin-2-yl)methoxy)-4-((4-hydroxypiperidin-4-yl)ethynyl)-7-isopropoxyisoquinoline-6-carboxamide] | 11 | 3.06 | 6.3 | 14200 |
| CCO[C@H]1CC[C@H](n2cc(-c3cnc(OC[C@@H]4CC(F)(F)C(=O)N4)c4cc(OC(C)C)c(C(N)=O)cc34)cn2)CC1 [Compound I-77, 1-(((S)-4,4-difluoro-5-oxopyrrolidin-2-yl)methoxy)-4-(1-(trans-4-ethoxycyclohexyl)-1H-pyrazol-4-yl)-7-isopropoxyisoquinoline-6-carboxamide] | 0.152 | 0.12 | 7 | 349 |
| CC(C)Oc1cc2c(O[C@@H]3CCCN(C(=O)CC#N)C3)ncc(C#CC3(O)CCCC3)c2cc1C(N)=O [Compound I-88, (R)-1-((1-(2-cyanoacetyl)piperidin-3-yl)oxy)-4-((1-hydroxycyclopentyl)ethynyl)-7-isopropoxyisoquinoline-6-carboxamide] | 2.07 | 0.903 | 29.7 | 696 |
| CC(C)Oc1cc2c(OC[C@@H]3CCC(=O)N3)ncc(C#CC3CN(C)C3)c2cc1C(N)=O [Compound I-26, (S)-7-isopropoxy-4-((1-methylazetidin-3-yl)ethynyl)-1-((5-oxopyrrolidin-2-yl)methoxy)isoquinoline-6-carboxamide] | 0.726 | 0.363 | 2.6 | 161 |
| CC(C)Oc1cc2c(OC[C@@H]3CC(F)(F)C(=O)N3)ncc(-c3cnn(C4CCNCC4)c3)c2cc1C(N)=O [Compound I-75, (S)-1-((4,4-difluoro-5-oxopyrrolidin-2-yl)methoxy)-7-isopropoxy-4-(1-(piperidin-4-yl)-1H-pyrazol-4-yl)isoquinoline-6-carboxamide] | 85.4 | 6.64 | 4 | 4580 |
| CC(C)Oc1cc2c(OC[C@@H]3CCC(=O)N3)ncc(C#CC3(O)CCNCC3)c2cc1C(N)=O [Compound I-13, (S)-4-((4-hydroxypiperidin-4-yl)ethynyl)-7-isopropoxy-1-((5-oxopyrrolidin-2-yl)methoxy)isoquinoline-6-carboxamide] | 4.64 | 4.67 | 14.9 | 3500 |
| COC1(OC)CC(C#Cc2cnc(OC[C@@H]3CC(F)(F)C(=O)N3)c3cc(OC(C)C)c(C(N)=O)cc23)C1 [Compound I-65, (S)-1-((4,4-difluoro-5-oxopyrrolidin-2-yl)methoxy)-4-((3,3-dimethoxycyclobutyl)ethynyl)-7-isopropoxyisoquinoline-6-carboxamide] | 0.0465 | 0.0065 | 8.7 | 29 |
| CC(C)Oc1cc2c(OC[C@@H]3CC(F)(F)C(=O)N3)ncc(C#CC3CCOCC3)c2cc1C(N)=O [Compound I-49, (S)-1-((4,4-difluoro-5-oxopyrrolidin-2-yl)methoxy)-7-isopropoxy-4-((tetrahydro-2H-pyran-4-yl)ethynyl)isoquinoline-6-carboxamide] | 0.273 | 0.0853 | 7.6 | 73.7 |
| CC(C)Oc1cc2c(OC[C@@H]3CCC(=O)N3)ncc(C#CC(C)(C)O)c2cc1C(N)=O [Compound I-3, (S)-4-(3-hydroxy-3-methylbut-1-yn-1-yl)-7-isopropoxy-1-((5-oxopyrrolidin-2-yl)methoxy)isoquinoline-6-carboxamide] | 0.879 | 0.36 | 12.5 | 411 |
| CC(C)Oc1cc2c(OC[C@@H]3CCC(=O)N3)ncc(C#CC3CCN(C(=O)OC(C)(C)C)CC3)c2cc1C(N)=O [Compound I-15, tert-butyl (S)-4-((6-carbamoyl-7-isopropoxy-1-((5-oxopyrrolidin-2-yl)methoxy)isoquinolin-4-yl)ethynyl)piperidine-1-carboxylate] | 0.525 | 0.0874 | 15.9 | 71.9 |
| CC(C)Oc1cc2c(OC[C@@H]3CC(F)(F)C(=O)N3)ncc(C#CC3CCN(C)CC3)c2cc1C(N)=O [Compound I-56, (S)-1-((4,4-difluoro-5-oxopyrrolidin-2-yl)methoxy)-7-isopropoxy-4-((1-methylpiperidin-4-yl)ethynyl)isoquinoline-6-carboxamide] | 0.422 | 0.136 | 3.3 | 24.9 |
| CC(C)Oc1cc2c(O[C@@H]3CCCN(C(=O)CC#N)C3)ncc(C#C[C@H]3C[C@@H](N(C)C)C3)c2cc1C(N)=O [Compound I-106, 1-(((R)-1-(2-cyanoacetyl)piperidin-3-yl)oxy)-4-((cis-3-(dimethylamino)cyclobutyl)ethynyl)-7-isopropoxyisoquinoline-6-carboxamide] | 0.436 | 0.363 | 3.2 | 53.5 |
| CC(C)Oc1cc2c(O[C@@H]3CCCN(C(=O)CC#N)C3)ncc(-c3cnn(C4CCCC4)c3)c2cc1C(N)=O [Compound I-116, (R)-1-((1-(2-cyanoacetyl)piperidin-3-yl)oxy)-4-(1-cyclopentyl-1H-pyrazol-4-yl)-7-isopropoxyisoquinoline-6-carboxamide] | 1.37 | 0.271 | 7.7 | 219 |
| CC(C)Oc1cc2c(OC[C@@H]3CCC(=O)N3)ncc(C#CC3CN(C(=O)OC(C)(C)C)C3)c2cc1C(N)=O [Compound I-24, tert-butyl (S)-3-((6-carbamoyl-7-isopropoxy-1-((5-oxopyrrolidin-2-yl)methoxy)isoquinolin-4-yl)ethynyl)azetidine-1-carboxylate] | 0.125 | 0.0763 | 8.1 | 22.4 |
| CC(C)Oc1cc2c(OC[C@@H]3CC(F)(F)C(=O)N3)ncc(C#CC3CN(C(=O)OC(C)(C)C)C3)c2cc1C(N)=O [Compound I-62, tert-butyl (S)-3-((6-carbamoyl-1-((4,4-difluoro-5-oxopyrrolidin-2-yl)methoxy)-7-isopropoxyisoquinolin-4-yl)ethynyl)azetidine-1-carboxylate] | 0.0219 | 0.001 | 19.3 | 2.1 |
| COC(=O)N1CCC(C#Cc2cnc(OC[C@@H]3CCC(=O)N3)c3cc(OC(C)C)c(C(N)=O)cc23)CC1 [Compound I-16, methyl (S)-4-((6-carbamoyl-7-isopropoxy-1-((5-oxopyrrolidin-2-yl)methoxy)isoquinolin-4-yl)ethynyl)piperidine-1-carboxylate] | 0.0886 | 0.0474 | 11.9 | 245 |
| CC(C)Oc1cc2c(OC[C@@H]3CCC(=O)N3)ncc(-c3cnn(C4CCOCC4)c3)c2cc1C(N)=O [Compound I-35, (S)-7-isopropoxy-1-((5-oxopyrrolidin-2-yl)methoxy)-4-(1-(tetrahydro-2H-pyran-4-yl)-1H-pyrazol-4-yl)isoquinoline-6-carboxamide] | 7.52 | 1.3 | 25.7 | 1620 |
| CC(C)Oc1cc2c(OC[C@@H]3CC(F)(F)C(=O)N3)ncc(-c3cnn(C4CCN(C)CC4)c3)c2cc1C(N)=O [Compound I-76, (S)-1-((4,4-difluoro-5-oxopyrrolidin-2-yl)methoxy)-7-isopropoxy-4-(1-(1-methylpiperidin-4-yl)-1H-pyrazol-4-yl)isoquinoline-6-carboxamide] | 1.11 | 0.375 | 2.4 | 452 |
| CC(C)Oc1cc2c(OC[C@@H]3CC(F)(F)C(=O)N3)ncc(C#C[C@H]3CC[C@@](C)(O)CC3)c2cc1C(N)=O [Compound I-61, 1-(((S)-4,4-difluoro-5-oxopyrrolidin-2-yl)methoxy)-4-(((1s,4R)-4-hydroxy-4-methylcyclohexyl)ethynyl)-7-isopropoxyisoquinoline-6-carboxamide] | 0.102 | 0.0807 | 8.8 | 13 |
| CC(C)Oc1cc2c(OC[C@@H]3CCC(=O)N3)ncc(-c3cnn([C@H]4CC[C@](C)(O)CC4)c3)c2cc1C(N)=O [Compound I-40, 4-(1-((1r,4S)-4-hydroxy-4-methylcyclohexyl)-1H-pyrazol-4-yl)-7-isopropoxy-1-(((S)-5-oxopyrrolidin-2-yl)methoxy)isoquinoline-6-carboxamide] | 0.817 | 0.188 | 17.1 | 2420 |
| CC(C)Oc1cc2c(O[C@@H]3CCCNC3)ncc(-c3cnn(C4CCOCC4)c3)c2cc1C(N)=O [Compound I-111, (R)-7-isopropoxy-1-(piperidin-3-yloxy)-4-(1-(tetrahydro-2H-pyran-4-yl)-1H-pyrazol-4-yl)isoquinoline-6-carboxamide] | 15.5 | 3.46 | 1440 | 2270 |
